Measured values taken from PubChem BioAssay (NCI).
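Values below derive from 48-hour exposures of cells grown in 96-well plates, with endpoints linearly interpolated between the two concentrations bracketing the appropriate inhibition level. The concentration for 50% growth inhibition is given as GI50. At the TGI there is no net growth.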

What was measured:
Experiment in all cases: inhibition of tumour cell growth, NCI panel, 48 h
786-0 renal = tested on: 786-0 renal
A498 renal = tested on: A498 renal
A549 NSCLC = tested on: A549 NSCLC
ACHN renal = tested on: ACHN renal
BT-549 breast = tested on: BT-549 breast
CAKI-1 renal = tested on: CAKI-1 renal
COLO 205 colon = tested on: COLO 205 colon
DU-145 prostate = tested on: DU-145 prostate
EKVX NSCLC = tested on: EKVX NSCLC
HCT-116 colon = tested on: HCT-116 colon
HCT-15 colon = tested on: HCT-15 colon
HL-60(TB) leukemia = tested on: HL-60(TB) leukemia
HOP-62 NSCLC = tested on: HOP-62 NSCLC
HOP-92 NSCLC = tested on: HOP-92 NSCLC
HS 578T breast = tested on: HS 578T breast
HT29 colon = tested on: HT29 colon
IGROV1 ovarian = tested on: IGROV1 ovarian
K-562 leukemia = tested on: K-562 leukemia
KM12 colon = tested on: KM12 colon
M14 melanoma = tested on: M14 melanoma
MALME-3M melanoma = tested on: MALME-3M melanoma
MCF7 breast = tested on: MCF7 breast
MDA-MB-231 breast = tested on: MDA-MB-231 breast
MDA-MB-435 = tested on: MDA-MB-435
MOLT-4 leukemia = tested on: MOLT-4 leukemia
NCI-H226 lung = tested on: NCI-H226 lung
NCI-H23 lung = tested on: NCI-H23 lung
NCI-H460 lung = tested on: NCI-H460 lung
NCI-H522 lung = tested on: NCI-H522 lung
NCI/ADR-RES ovarian = tested on: NCI/ADR-RES ovarian
OVCAR-3 ovarian = tested on: OVCAR-3 ovarian
OVCAR-4 ovarian = tested on: OVCAR-4 ovarian
OVCAR-5 ovarian = tested on: OVCAR-5 ovarian
OVCAR-8 ovarian = tested on: OVCAR-8 ovarian
PC-3 prostate = tested on: PC-3 prostate
RPMI-8226 leukemia = tested on: RPMI-8226 leukemia
RXF 393 renal = tested on: RXF 393 renal
SF-268 CNS = tested on: SF-268 CNS
SF-295 CNS = tested on: SF-295 CNS
SF-539 CNS = tested on: SF-539 CNS
SK-MEL-2 melanoma = tested on: SK-MEL-2 melanoma
SK-MEL-28 melanoma = tested on: SK-MEL-28 melanoma
SK-MEL-5 melanoma = tested on: SK-MEL-5 melanoma
SK-OV-3 ovarian = tested on: SK-OV-3 ovarian
SN12C renal = tested on: SN12C renal
SNB-19 CNS = tested on: SNB-19 CNS
SNB-75 CNS = tested on: SNB-75 CNS
SR leukemia = tested on: SR leukemia
SW-620 colon = tested on: SW-620 colon
T-47D breast = tested on: T-47D breast
TK-10 renal = tested on: TK-10 renal
U251 CNS = tested on: U251 CNS
UACC-257 melanoma = tested on: UACC-257 melanoma
UACC-62 melanoma = tested on: UACC-62 melanoma
UO-31 renal = tested on: UO-31 renal
CCRF-CEM leukemia = tested on: CCRF-CEM leukemia
HCC-2998 colon = tested on: HCC-2998 colon
LOX IMVI melanoma = tested on: LOX IMVI melanoma

COc1ccc(CNc2nc(NCc3ccc(OC)cc3)nc(Nc3ccccc3)n2)cc1
TGI (786-0 renal): > 100 µM
TGI (A498 renal): > 100 µM
TGI (A549 NSCLC): > 100 µM
TGI (ACHN renal): > 100 µM
TGI (BT-549 breast): > 100 µM
TGI (CAKI-1 renal): 10.4 µM
TGI (COLO 205 colon): > 100 µM
TGI (DU-145 prostate): > 100 µM
TGI (EKVX NSCLC): > 100 µM
TGI (HCT-116 colon): > 100 µM
TGI (HCT-15 colon): 13.5 µM
TGI (HL-60(TB) leukemia): > 100 µM
TGI (HOP-62 NSCLC): > 100 µM
TGI (HOP-92 NSCLC): > 100 µM
TGI (HS 578T breast): > 100 µM
TGI (HT29 colon): 4.1 µM
TGI (IGROV1 ovarian): > 100 µM
TGI (K-562 leukemia): > 100 µM
TGI (KM12 colon): 35.3 µM
TGI (M14 melanoma): > 100 µM
TGI (MALME-3M melanoma): > 100 µM
TGI (MCF7 breast): > 100 µM
TGI (MDA-MB-231 breast): > 100 µM
TGI (MDA-MB-435): 5.7 µM
TGI (MOLT-4 leukemia): > 100 µM
TGI (NCI-H226 lung): > 100 µM
TGI (NCI-H23 lung): 78.5 µM
TGI (NCI-H460 lung): > 100 µM
TGI (NCI-H522 lung): > 100 µM
TGI (NCI/ADR-RES ovarian): > 100 µM
TGI (OVCAR-3 ovarian): 6.94 µM
TGI (OVCAR-4 ovarian): > 100 µM
TGI (OVCAR-5 ovarian): > 100 µM
TGI (OVCAR-8 ovarian): > 100 µM
TGI (PC-3 prostate): > 100 µM
TGI (RPMI-8226 leukemia): 40.3 µM
TGI (RXF 393 renal): > 100 µM
TGI (SF-268 CNS): > 100 µM
TGI (SF-295 CNS): 8.83 µM
TGI (SF-539 CNS): > 100 µM
TGI (SK-MEL-2 melanoma): > 100 µM
TGI (SK-MEL-28 melanoma): > 100 µM
TGI (SK-MEL-5 melanoma): > 100 µM
TGI (SK-OV-3 ovarian): > 100 µM
TGI (SN12C renal): > 100 µM
TGI (SNB-19 CNS): > 100 µM
TGI (SNB-75 CNS): > 100 µM
TGI (SR leukemia): 3.81 µM
TGI (SW-620 colon): > 100 µM
TGI (T-47D breast): > 100 µM
TGI (TK-10 renal): > 100 µM
TGI (U251 CNS): > 100 µM
TGI (UACC-257 melanoma): > 100 µM
TGI (UACC-62 melanoma): > 100 µM
TGI (UO-31 renal): > 100 µM

CC(C)(C)OC(=O)NCCCCCCCCn1c2c(c3ccccc3c1=O)C(=O)c1ccccc1-2
GI50 (786-0 renal): 10.8 µM
TGI (786-0 renal): 27.5 µM
GI50 (A498 renal): 15.5 µM
TGI (A498 renal): > 47.7 µM
GI50 (A549 NSCLC): > 50 µM
TGI (A549 NSCLC): > 50 µM
GI50 (ACHN renal): 10.9 µM
TGI (ACHN renal): > 30 µM
GI50 (BT-549 breast): 15.6 µM
TGI (BT-549 breast): > 50 µM
GI50 (CAKI-1 renal): 11.8 µM
TGI (CAKI-1 renal): > 36.5 µM
TGI (CCRF-CEM leukemia): > 11.4 µM
GI50 (COLO 205 colon): > 50 µM
TGI (COLO 205 colon): > 50 µM
GI50 (DU-145 prostate): > 50 µM
TGI (DU-145 prostate): > 50 µM
GI50 (EKVX NSCLC): 43.5 µM
TGI (EKVX NSCLC): > 50 µM
GI50 (HCC-2998 colon): > 50 µM
TGI (HCC-2998 colon): > 50 µM
GI50 (HCT-116 colon): 26.8 µM
TGI (HCT-116 colon): > 50 µM
GI50 (HCT-15 colon): > 50 µM
TGI (HCT-15 colon): > 50 µM
GI50 (HL-60(TB) leukemia): > 50 µM
TGI (HL-60(TB) leukemia): > 50 µM
GI50 (HOP-62 NSCLC): 11.6 µM
TGI (HOP-62 NSCLC): 35 µM
GI50 (HOP-92 NSCLC): 9.05 µM
TGI (HOP-92 NSCLC): 21 µM
GI50 (HS 578T breast): 7.04 µM
TGI (HS 578T breast): 27.5 µM
GI50 (HT29 colon): > 50 µM
TGI (HT29 colon): > 50 µM
GI50 (IGROV1 ovarian): 14.3 µM
TGI (IGROV1 ovarian): > 50 µM
GI50 (K-562 leukemia): > 50 µM
TGI (K-562 leukemia): > 50 µM
GI50 (KM12 colon): > 40.4 µM
TGI (KM12 colon): > 50 µM
GI50 (LOX IMVI melanoma): > 32 µM
TGI (LOX IMVI melanoma): > 50 µM
GI50 (M14 melanoma): > 50 µM
TGI (M14 melanoma): > 50 µM
GI50 (MALME-3M melanoma): > 15.9 µM
TGI (MALME-3M melanoma): > 43.7 µM
GI50 (MCF7 breast): > 50 µM
TGI (MCF7 breast): > 50 µM
GI50 (MDA-MB-231 breast): 13.5 µM
TGI (MDA-MB-231 breast): > 47.5 µM
GI50 (MDA-MB-435): > 50 µM
TGI (MDA-MB-435): > 50 µM
GI50 (MOLT-4 leukemia): > 50 µM
TGI (MOLT-4 leukemia): > 50 µM
GI50 (NCI-H226 lung): 22.3 µM
TGI (NCI-H226 lung): > 50 µM
GI50 (NCI-H23 lung): 20.4 µM
TGI (NCI-H23 lung): > 50 µM
GI50 (NCI-H460 lung): > 50 µM
TGI (NCI-H460 lung): > 50 µM
GI50 (NCI-H522 lung): 13.5 µM
TGI (NCI-H522 lung): > 43.6 µM
GI50 (NCI/ADR-RES ovarian): > 42.1 µM
TGI (NCI/ADR-RES ovarian): > 50 µM
TGI (OVCAR-3 ovarian): > 39.4 µM
GI50 (OVCAR-4 ovarian): > 50 µM
TGI (OVCAR-4 ovarian): > 50 µM
GI50 (OVCAR-5 ovarian): > 43 µM
TGI (OVCAR-5 ovarian): > 50 µM
GI50 (OVCAR-8 ovarian): 33.9 µM
TGI (OVCAR-8 ovarian): > 50 µM
GI50 (PC-3 prostate): > 50 µM
TGI (PC-3 prostate): > 50 µM
GI50 (RPMI-8226 leukemia): > 50 µM
TGI (RPMI-8226 leukemia): > 50 µM
GI50 (RXF 393 renal): 8.49 µM
TGI (RXF 393 renal): 24.5 µM
GI50 (SF-268 CNS): 19.5 µM
TGI (SF-268 CNS): > 50 µM
GI50 (SF-295 CNS): 11.1 µM
TGI (SF-295 CNS): > 41.6 µM
GI50 (SF-539 CNS): 9.64 µM
TGI (SF-539 CNS): 29.6 µM
GI50 (SK-MEL-2 melanoma): 5.61 µM
TGI (SK-MEL-2 melanoma): 19.9 µM
GI50 (SK-MEL-28 melanoma): > 50 µM
TGI (SK-MEL-28 melanoma): > 50 µM
GI50 (SK-MEL-5 melanoma): > 40 µM
TGI (SK-MEL-5 melanoma): > 50 µM
GI50 (SK-OV-3 ovarian): 14.4 µM
TGI (SK-OV-3 ovarian): > 39.4 µM
GI50 (SN12C renal): > 50 µM
TGI (SN12C renal): > 50 µM
GI50 (SNB-19 CNS): 14.9 µM
TGI (SNB-19 CNS): > 50 µM
GI50 (SNB-75 CNS): 10.6 µM
TGI (SNB-75 CNS): 29.2 µM
GI50 (SR leukemia): > 34.8 µM
TGI (SR leukemia): > 50 µM
GI50 (SW-620 colon): > 50 µM
TGI (SW-620 colon): > 50 µM
GI50 (T-47D breast): > 48 µM
TGI (T-47D breast): > 50 µM
GI50 (TK-10 renal): 11.7 µM
TGI (TK-10 renal): 30.7 µM
GI50 (U251 CNS): 16.7 µM
TGI (U251 CNS): > 50 µM
GI50 (UACC-257 melanoma): > 50 µM
TGI (UACC-257 melanoma): > 50 µM
GI50 (UACC-62 melanoma): 20.3 µM
TGI (UACC-62 melanoma): > 50 µM
GI50 (UO-31 renal): 34 µM
TGI (UO-31 renal): > 50 µM
